Patent US4327210A, “Thiazolylacelamide cephalosporins” (Hoffmann-La Roche Inc., priority 1978, dated 1982)
Converted amounts (≈) assume the structure as drawn.

Experiments:
Escherichia coli [1] = test: In vivo activity in mice infected intraperitoneally with Escherichia coli; details: sc, 96 h, read-out: CD50 (dose with which 50% of the test animals survive); mice infected i.p. with Escherichia coli; s.c. 1, 2 1/2 and 4 hours after infection; survival on fourth day; by interpolation
Description: Groups of 5 mice are infected intraperitoneally with an aqueous suspension of Escherichia coli. The test substance is administered subcutaneously in physiological common salt solution three times, i.e. 1 hour, 21/2 hours and 4 hours, after the infection. The number of surviving animals is determined on the fourth day.

Escherichia coli [2] = test: In vitro antimicrobial activity (minimum inhibitory concentration); type: cell-based
Source text: (§1) In vitro activity: minimum inhibitory concentration (μg/ml)

Pseudomonas aeruginosa = test: as above; type: cell-based
Source text: as §1

Proteus vulgaris = test: as above; type: cell-based
Source text: as §1

Staphylococcus aureus = test: as above; type: cell-based
Source text: as §1

Haemophilus influenzae = test: as above; type: cell-based
Source text: as §1

Klebsiella pneumoniae = test: as above; type: cell-based
Source text: as §1

Proteus rettgeri = test: as above; type: cell-based; details: Providencia rettgeri
Source text: as §1

Proteus mirabilis = test: as above; type: cell-based
Source text: as §1

Serratia marcescens = test: as above; type: cell-based
Source text: as §1

[3] = Pseudomonas aeruginosa strain 1
[4] = Pseudomonas aeruginosa strain 2
[5] = Pseudomonas aeruginosa strain 3
[6] = Pseudomonas aeruginosa strain 4
[7] = Pseudomonas aeruginosa strain 5
[8] = Pseudomonas aeruginosa strain 6
[9] = Pseudomonas aeruginosa strain 7
[10] = ATCC6538, Staphylococcus aureus strain ATCC 6538
[11] = Staphylococcus aureus pencillin-resistant strain
[12] = Haemophilus influenzae strain 1
[13] = Haemophilus influenzae strain 2
[14] = Haemophilus influenzae strain 3
[15] = Haemophilus influenzae strain 4
[16] = Haemophilus influenzae strain 5
[17] = Haemophilus influenzae strain 6
[18] = Haemophilus influenzae strain 7

In the case of `CO/N=C(\C(=O)N[C@@H]1C(=O)N2C(C(=O)O)=C(CSc3nc(=O)c(O)nn3C)CS[C@H]12)c1csc(NC(=O)CCl)n1` [Product B, (6R,7R)-7-[2-[2-(2-Chloroacetamido)-4-thiazolyl]-2-(Z-methoxyimino)acetamido]-3-[[(2,5-dihydro-6-hydroxy-2-methyl-5-oxo-as-triazin-3-yl)thiol]methyl]-8-oxo-5-thia-1-azabicyclo[4.2.0]oct-2-ene-2-carboxylic acid], the ED50 (Escherichia coli [1]) is reported as 0.16 mg/kg, the MIC (Escherichia coli [2]; Escherichia coli strain 1) is reported as 0.16 µg/mL (≈ 0.254 µM) and the MIC (Escherichia coli [2]; Escherichia coli strain 2) is reported as 5 µg/mL (≈ 7.92 µM). The MIC (Pseudomonas aeruginosa; [3]) was 1.2 µg/mL (≈ 1.9 µM), the MIC (Pseudomonas aeruginosa; [4]) was over 80 µg/mL and the MIC (Pseudomonas aeruginosa; [5]) was 40 µg/mL (≈ 63.4 µM). For the same molecule, the MIC (Pseudomonas aeruginosa; [6]) was 80 µg/mL (≈ 127 µM), the MIC (Pseudomonas aeruginosa; [7]) was 80 µg/mL (≈ 127 µM) and the MIC (Pseudomonas aeruginosa; [8]) was 80 µg/mL (≈ 127 µM). The MIC (Pseudomonas aeruginosa; [9]) was 80 µg/mL (≈ 127 µM), the MIC (Proteus vulgaris) was 0.16 µg/mL (≈ 0.254 µM) and the MIC (Staphylococcus aureus; [10]) was 2.5 µg/mL (≈ 3.96 µM). The MIC (Staphylococcus aureus; [11]) was 5 µg/mL (≈ 7.92 µM), the MIC (Haemophilus influenzae; [12]) was 1.2 µg/mL (≈ 1.9 µM) and the MIC (Haemophilus influenzae; [13]) was 0.3 µg/mL (≈ 0.475 µM). For the same molecule, the MIC (Haemophilus influenzae; [14]) was 0.16 µg/mL (≈ 0.254 µM), the MIC (Haemophilus influenzae; [15]) was 0.16 µg/mL (≈ 0.254 µM) and the MIC (Haemophilus influenzae; [16]) was 0.08 µg/mL (≈ 0.127 µM). The MIC (Haemophilus influenzae; [17]) was 0.16 µg/mL (≈ 0.254 µM), the MIC (Haemophilus influenzae; [18]) was 0.16 µg/mL (≈ 0.254 µM) and the MIC (Klebsiella pneumoniae) was 10 µg/mL (≈ 15.8 µM). The MIC (Proteus rettgeri) was 0.16 µg/mL (≈ 0.254 µM), the MIC (Proteus mirabilis; Proteus mirabilis strain 1) was 0.08 µg/mL (≈ 0.127 µM) and the MIC (Proteus mirabilis; Proteus mirabilis strain 2) was 0.16 µg/mL (≈ 0.254 µM). For the same molecule, the MIC (Serratia marcescens) was 2.5 µg/mL (≈ 3.96 µM), the LD50 (in vivo; iv) was 250 to 500 mg/kg and the LD50 (in vivo; po) was over 5000 mg/kg. It also gave an LD50 (in vivo; sc) of 2000 to 4000 mg/kg.

With `CO/N=C(\C(=O)N[C@@H]1C(=O)N2C(C(=O)O)=C(CSc3nc(=O)c(O)nn3C)CS[C@H]12)c1csc(N)n1` [Product A] the ED50 (Escherichia coli [1]) was at most 0.005 mg/kg, the MIC (Escherichia coli [2]; Escherichia coli strain 1) was 0.02 µg/mL (≈ 0.0361 µM) and the MIC (Escherichia coli [2]; Escherichia coli strain 2) was 0.6 µg/mL (≈ 1.08 µM). For the same molecule, the MIC (Pseudomonas aeruginosa; [3]) was 0.3 µg/mL (≈ 0.541 µM), the MIC (Pseudomonas aeruginosa; [4]) was 10 µg/mL (≈ 18 µM) and the MIC (Pseudomonas aeruginosa; [5]) was 2.5 µg/mL (≈ 4.51 µM). For the same molecule, the MIC (Pseudomonas aeruginosa; [6]) was 5 µg/mL (≈ 9.02 µM), the MIC (Pseudomonas aeruginosa; [7]) was 5 µg/mL (≈ 9.02 µM) and the MIC (Pseudomonas aeruginosa; [8]) was 10 µg/mL (≈ 18 µM). For the same molecule, the MIC (Pseudomonas aeruginosa; [9]) was 5 µg/mL (≈ 9.02 µM), the MIC (Proteus vulgaris) was at most 0.01 µg/mL and the MIC (Staphylococcus aureus; [10]) was 2.5 µg/mL (≈ 4.51 µM). It also gave an MIC (Staphylococcus aureus; [11]) of 2.5 µg/mL (≈ 4.51 µM), an MIC (Haemophilus influenzae; [12]) of 0.08 µg/mL (≈ 0.144 µM) and an MIC (Haemophilus influenzae; [13]) of 0.005 µg/mL (≈ 0.00902 µM). For the same molecule, the MIC (Haemophilus influenzae; [14]) was 0.005 µg/mL (≈ 0.00902 µM), the MIC (Haemophilus influenzae; [15]) was 0.005 µg/mL (≈ 0.00902 µM) and the MIC (Haemophilus influenzae; [16]) was 0.0025 µg/mL (≈ 0.00451 µM). For the same molecule, the MIC (Haemophilus influenzae; [17]) was 0.0025 µg/mL (≈ 0.00451 µM), the MIC (Haemophilus influenzae; [18]) was 0.0025 µg/mL (≈ 0.00451 µM) and the MIC (Klebsiella pneumoniae) was 1.2 µg/mL (≈ 2.16 µM). It also gave an MIC (Proteus rettgeri) of at most 0.01 µg/mL, an MIC (Proteus mirabilis; Proteus mirabilis strain 1) of at most 0.01 µg/mL and an MIC (Proteus mirabilis; Proteus mirabilis strain 2) of at most 0.01 µg/mL. For the same molecule, the MIC (Serratia marcescens) was 0.08 µg/mL (≈ 0.144 µM).
